Columns and labels:
[1] = cited from earlier work
[2] = In vitro skin flux study of reservoir formulations, heat separated human epidermal membrane, modified Franz diffusion cells; format: in vitro ADME
Description: Two reservoir type formulations (I and II) were prepared for the determination of initial propentofylline skin flux rates.
Approximately 4.0 ml of a base solution was prepared in a 7 ml glass vial. This solution consisted of 50% v/v of ethanol, USP; 15% v/v purified water (18 Mohm-cm); 30% v/v glycerin, USP; 1% v/v of glycerol monooleate (GMO, "Myverol® 18-99); 1% v/v methyl laurate (ML). To one solution was added sufficient propentofylline provide a concentration of about 72 mg/ml of solution (Formulation I) and to the other was added sufficient propentofylline to provide a concentration of about 131 mg/ml of solution (Formulation II). To each solution was added about 3% v/v of hydroxypropyl methylcellulose (Methocel® E10M) as a thickening agent. […]
Dermatomed (≈[…]) full thickness human cadaver skin was obtained from skin banks. […] Information on age, race, sex and anatomical site of the donor skin was recorded when available.
[…] skin flux studies were conducted using a heat separated human epidermal membrane and modified Franz diffusion cells. […] At predetermined time points, the entire contents of the receiver compartment were collected for drug quantitation,and the receiver compartment refilled with fresh receptor medium, taking care to eliminate any air bubbles at the skin/solution interface. […]

[3] = oral treatment; cited from earlier work
nucleoside transport = settings: cerebral ischemia; cited from earlier work
[4] = cited from earlier work; remark: listed apart in the source

Which plasma propentofylline concentration ([1]; 2 hours following a single 300 mg oral dose, concluded from literature PK data) does the source give for `CCCn1cnc2c1c(=O)n(CCCCC(C)=O)c(=O)n2C` [propentofylline, 1-(5'-oxohexyl)-3-methyl-7-propylxanthine] here?
The plasma propentofylline concentration was about 10 ng/mL.

What about the elimination half-life ([1]; humans) of the same compound?
The elimination half-life was 15 to 45 min.

And the “hepatic first pass metabolism” value ([1]; humans)?
Its value is “extensive hepatic first pass metabolism primarily to inactive metabolites”.

What about the “absolute bioavailability after oral administration” value ([1]; oral, humans) of the same compound?
Its value is 5-10%.

And the “effect of food on bioavailability” value ([1]; oral, humans)?
The value was “Drug interactions with food further reduce bioavailability”.

And the constant migration rate [2]?
The constant migration rate was “about 2 mg/cm^2 /24 h”.

And the “sustained daily dosage provided by transdermal delivery” value [2]?
The value was 30 mg.

And the “most frequent side effects” value [3]?
The value was “headaches, dizziness, gastrointestinal pain and nausea”.

What about the “nucleoside transport inhibition, neuroprotective effects” value (nucleoside transport) of the same compound?
The value was “nucleoside transport inhibitor with neuroprotective effects in cerebral ischemia”.

What about the “rate of deterioration / acute improvement of patient's condition” value ([4]; neuroprotective effect) of the same compound?
The value was “although not producing an acute improvement in the patient's condition, does cause a reduction in the rate of deterioration”.

What about the “clinical parameters in dementia” value ([4]; placebo controlled trials, mild to moderate dementia) of the same compound?
The value was “positively influence clinical parameters in placebo controlled trials”.
